Experiment [1] deals with T1, ligand binding domain (LBD) of human FXR (aa 193-473) (Homo sapiens, UniProt Q96RI1).
T1 sequence (Q96RI1 1-486): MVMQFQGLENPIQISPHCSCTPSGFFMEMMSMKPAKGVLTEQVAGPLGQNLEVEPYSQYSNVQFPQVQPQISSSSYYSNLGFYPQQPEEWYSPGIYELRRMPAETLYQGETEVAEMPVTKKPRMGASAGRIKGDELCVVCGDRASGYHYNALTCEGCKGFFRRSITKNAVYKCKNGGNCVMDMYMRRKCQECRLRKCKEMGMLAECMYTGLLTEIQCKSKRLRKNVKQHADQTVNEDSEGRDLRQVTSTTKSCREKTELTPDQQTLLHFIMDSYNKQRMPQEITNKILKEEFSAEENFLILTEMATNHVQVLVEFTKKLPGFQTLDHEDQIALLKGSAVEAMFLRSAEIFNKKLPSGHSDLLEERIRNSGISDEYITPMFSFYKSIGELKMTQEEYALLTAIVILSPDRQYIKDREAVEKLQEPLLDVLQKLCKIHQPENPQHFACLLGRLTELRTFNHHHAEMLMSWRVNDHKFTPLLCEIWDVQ
Nature of the experiment: Luciferase transcriptional reporter gene assay (transactivation). The format is cell-based. As to conditions: BHK21 cells transfected with pFA-FXR-LBD plus reporter plasmid; 24 hours incubation; luciferase luminescence. The source says:
(§1) Bacterial and mammalian expression vectors were constructed to produce glutathione-s-transferase (GST) and Gal4 DNA binding domain (GAL) proteins fused to the ligand binding domain (LBD) of human FXR (aa 193-473). To accomplish this, the portions of the sequences encoding the FXR LBD were amplified by polymerase chain reaction (PCR) from a full-length clone by PCR and then subcloned into the plasmid vectors. The final clone was verified by DNA sequence analysis.
Luciferase Transcriptional Reporter Gene Assays
Baby hamster kidney cells (BHK21 ATCC CCL 10) were grown in DMEM medium containing 10% FBS at 37° C. in a 95% […]/5% CO2 atmosphere. Cells were seeded in 6-well plates at a density of 10^5 cells/well and then transfected with the pFA-FXR-LBD or expression plasmid plus a reporter plasmid. […] Six hours following transfection, the cells were harvested by trypsinization and seeded in 96-well plates at a density of […]. After 24 hours to allow attachment of cells, the medium was removed and replaced with 100 μl of phenol red-free medium containing the test substances or control ligands (final DMSO concentration: 0.4%). Following incubation of the cells for 24 hours with substances, 50 μl of the supernatant was discarded and then 50 μl of Luciferase Constant-Light Reagent (Roche Molecular Biochemicals) was added to lyse the cells and initiate the luciferase reaction. Luminescence, as a measure of luciferase activity, was detected in a Packard TopCount. Transcriptional activation in the presence of a test substance was expressed as fold-change in luminescence compared to that of cells incubated in the absence of the substance. EC50 values were calculated using the XLfit program (ID Business Solutions Ltd. UK).
In general terms: In a reporter assay the amount or activity of a reporter protein is the signal.

For experiment [2], the target named is T2, FXR ligand binding domain (GST-FXR LBD fusion protein) (Homo sapiens, UniProt Q96RI1).
T2 construct: made in house; host or cells: E. coli BL21 (pLysS)
T2 sequence (Q96RI1 193-472 isoform Q96RI1-2 limits assumed): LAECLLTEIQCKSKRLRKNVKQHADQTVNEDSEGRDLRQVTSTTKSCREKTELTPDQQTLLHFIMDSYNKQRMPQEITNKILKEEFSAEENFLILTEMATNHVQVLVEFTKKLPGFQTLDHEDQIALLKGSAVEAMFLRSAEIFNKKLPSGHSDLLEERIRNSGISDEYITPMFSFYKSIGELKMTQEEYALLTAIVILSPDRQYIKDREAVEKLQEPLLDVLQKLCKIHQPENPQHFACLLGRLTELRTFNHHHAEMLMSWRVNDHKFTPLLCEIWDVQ
Nature of the experiment: Radioligand binding assay (SPA, radioligand displacement). As to conditions: 40 nM GST-FXR LBD on glutathione yttrium silicate SPA beads; radioligand e.g. 20 nM 2,N-dicyclohexyl-2-[2-(2,4 dimethoxy-phenyl)-benzoimidazol-1-yl]-acetamide. As for the experimental part:
The following tests were carried out in order to determine the activity of the compounds of formula (I). Background information on the binding assay can be found in: Nichols J S et al. “Development of a scintillation proximity assay for peroxisome proliferator-activated receptor gamma ligand binding domain”, (1998) Anal. Biochem. 257: 112-119.
as §1
The induction, expression, and subsequent purification of GST-LBD fusion protein was performed in E. coli strain BL21 (pLysS) cells by standard methods (Current Protocols in Molecular Biology, Wiley Press, ed. Ausubel et al.).
Radioligand Binding Assay
Binding of test substances to the FXR ligand binding domain was assessed in a radioligand displacement assay. The assay was performed in a buffer consisting of 50 mM Hepes, pH 7.4, 10 mM NaCl, 5 mM MgCl2, 0.01% CHAPS. For each reaction well in a 96-well plate, 40 nM of GST-FXR LBD fusion protein was bound to 10 μg glutathione ytrium silicate SPA beads (PharmaciaAmersham) in a final volume of 50 μl by shaking. A radioligand (e.g. 20 nM of 2,N-dicyclohexyl-2-[2-(2,4 dimethoxy-phenyl)-benzoimidazol-1-yl]-acetamide) and test compounds were added, and scintillation proximity counting was performed. All binding assays were performed in 96-well plates and the amount of bound ligand was measured on a Packard TopCount using OptiPlates (Packard). Dose response curves were performed within a range of test compound concentrations from 6×10^−9 M to 2.5×10^−5 M and IC50s were calculated.

Among the data in patent US7790904B2, “Substituted benzimidazole derivatives” (Hoffmann-La Roche Inc., priority 2007, dated 2010) are EC50 and IC50 values, retold here.

Each structure is given as a SMILES string.

As usually defined, the EC50 is the concentration that produces a half-maximal response. As usually defined, the IC50 is the concentration that inhibits the measured activity by half. Low readings indicate higher potency, high ones lower potency.

Regarding `Cc1cccc(OCc2nc3cc(F)ccc3n2C(C(=O)NC2CCCCC2)C2CCCCC2)c1C` (stereo not drawn) [Example 49, 2,N-Dicyclohexyl-2-[2-(2,3-dimethyl-phenoxymethyl)-5-fluoro-benzoimidazol-1-yl]-acetamide], the EC50 in experiment [1] was found to be 95 nM. This compound also returned a 50% inhibitory concentration (IC50) in experiment [2] of 38 nM.
Regarding `Cc1cc(Cl)ccc1O[C@H](C)c1nc2ccc(F)cc2n1[C@H](C(=O)NC1CCCCC1)C1CCCCC1` [Example 31, (S)-2-{2-[(R)-1-(4-Chloro-2-methyl-phenoxy)-ethyl]-6-fluoro-benzoimidazol-1-yl}-2,N-dicyclohexyl-acetamide], the EC50 in experiment [1] came to 254 nM. Moreover, the IC50 in experiment [2] came out at 118 nM.
`O=C(NC1CCCCC1)C(C1CCCCC1)n1c(COc2ccccn2)nc2cc(F)ccc21` (stereo not drawn) [Example 56, 2,N-Dicyclohexyl-2-[5-fluoro-2-(pyridin-2-yloxymethyl)-benzoimidazol-1-yl]-acetamide]: the concentration for a half-maximal effect (EC50) in experiment [1] turned out to be 982 nM. In experiment [2], this compound gave a 50% inhibitory concentration (IC50) of 105 nM.
